Columns and labels:
Format in all cases: in vivo
[1] = tested on: Tetranychus urticae; experiment: Tetranychus urticae (two-spotted spider mite) bean leaf disc spray test; settings: foliar, 192 h, application rate 200 ppm, sprayed bean leaf discs, mixed ages, egg, larval and adult mortality 8 days later
Method: This Example illustrates the pesticidal/insecticidal properties of compounds of formula (I). Tests were performed as follows: Tetranychus urticae (Two-Spotted Spider Mite): Bean leaf discs on agar in 24-well microtiter plates were sprayed with test solutions at an application rate of 200 ppm. After drying, the leaf discs are infested with mite populations of mixed ages. 8 days later, discs are checked for egg mortality, larval mortality, and adult mortality.

[2] = tested on: Thrips tabaci; experiment: Thrips tabaci (onion thrips) sunflower leaf disc spray test; settings: foliar, 168 h, application rate 200 ppm, sprayed sunflower leaf discs, mixed ages, mortality after 7 days
Method: This Example illustrates the pesticidal/insecticidal properties of compounds of formula (I). Tests were performed as follows: Thrips Tabaci (Onion Thrips): Sunflower leaf discs were placed on agar in a 24-well microtiter plate and sprayed with test solutions at an application rate of 200 ppm. After drying, the leaf discs were infested with a thrips population of mixed ages. After an incubation period of 7 days, samples were checked for mortality.

[3] = tested on: Plutella xylostella; experiment: Plutella xylostella (diamond back moth) L2 larvae test on artificial diet; settings: 144 h, application rate 200 ppm (concentration in well 18 ppm), larval mortality and growth regulation after 6 days
Method: (§1) This Example illustrates the pesticidal/insecticidal properties of compounds of formula (I). Tests were performed as follows: Plutella xylostella (Diamond Back Moth): 24-well microtiter plate (MTP) with artificial diet was treated with test solutions at an application rate of 200 ppm (concentration in well 18 ppm) by pipetting. After drying, the MTP's were infested with L2 larvae (7-12 per well). After an incubation period of 6 days, samples were checked for larval mortality and growth regulation.

[4] = tested on: Heliothis virescens; experiment: Heliothis virescens (tobacco budworm) egg test on artificial diet; settings: 96 h, application rate 200 ppm (concentration in well 18 ppm), eggs on artificial diet, egg mortality, larval mortality, growth regulation after 4 days
Method: This Example illustrates the pesticidal/insecticidal properties of compounds of formula (I). Tests were performed as follows: Heliothis virescens (Tobacco Budworm): Eggs (0-24 h old) were placed in 24-well microtiter plate on artificial diet and treated with test solutions at an application rate of 200 ppm (concentration in well 18 ppm) by pipetting. After an incubation period of 4 days, samples were checked for egg mortality, larval mortality, and growth regulation.

[5] = tested on: Diabrotica balteata; experiment: Diabrotica balteata (corn root worm) L2 larvae test on artificial diet; settings: 120 h, application rate 200 ppm (concentration in well 18 ppm), larval mortality and growth regulation after 5 days
Method: as §1, with “Diabrotica balteata (Corn Root Worm): A” for “Plutella xylostella (Diamond Back Moth):”, “(6-10” for “(7-12”, “5” for “6”

[6] = tested on: Spodoptera littoralis; experiment: Spodoptera littoralis (Egyptian cotton leafworm) cotton leaf disc spray test; settings: foliar, 72 h, application rate 200 ppm, sprayed cotton leaf discs, mortality, feeding behavior, growth regulation 3 days after treatment
Method: This Example illustrates the pesticidal/insecticidal properties of compounds of formula (I). Tests were performed as follows: Spodoptera littoralis (Egyptian Cotton Leafworm): Cotton leaf discs were placed on agar in a 24-well microtiter plate and sprayed with test solutions at an application rate of 200 ppm. After drying, the leaf discs were infested with […]. The samples were checked for mortality, feeding behavior, and growth regulation 3 days after treatment (DAT).

Measured: pest or weed control at 200 ppm

Cc1cc(C2=NOC(c3cc(Cl)cc(Cl)c3)(C(F)(F)F)C2)ccc1C(=O)NC1CON(C)C1=O (stereo not drawn) [Compound A01]
≥ 80%: all assays above

Cc1cc(C2=NOC(c3cc(Cl)cc(Cl)c3)(C(F)(F)F)C2)ccc1C(=O)NC1CON(CC(F)(F)F)C1=O (stereo not drawn) [Compound A22]
≥ 80%: all assays above

Cc1cc(C2=NOC(c3cc(Cl)cc(Br)c3)(C(F)(F)F)C2)ccc1C(=O)NC1CON(CC(F)(F)F)C1=O (stereo not drawn) [Compound A25]
≥ 80%: all assays above

CCN1OCC(NC(=O)c2ccc(C3=NOC(c4cc(Cl)cc(Br)c4)(C(F)(F)F)C3)cc2C)C1=O (stereo not drawn) [Compound A10]
≥ 80%: all assays above

CCN1OCC(NC(=O)c2ccc(C3=NOC(c4cc(Cl)c(F)c(Cl)c4)(C(F)(F)F)C3)cc2C)C1=O (stereo not drawn) [Compound A04]
≥ 80%: all assays above

CCN1OCC(NC(=O)c2ccc(C3=NOC(c4cc(Cl)cc(Cl)c4)(C(F)(F)F)C3)cc2C)C1=O (stereo not drawn) [Compound A07]
≥ 80%: all assays above

Cc1cc(C2=NOC(c3cc(Cl)cc(Cl)c3)(C(F)(F)F)C2)ccc1C(=O)NC1CON(CC(F)F)C1=O (stereo not drawn) [Compound A15]
≥ 80%: all assays above

CCN1OCC(NC(=O)c2ccc(C3=NOC(c4cc(Cl)cc(C(F)(F)F)c4)(C(F)(F)F)C3)cc2C)C1=O (stereo not drawn) [Compound A12]
≥ 80%: all assays above

CCN1OCC(NC(=O)c2ccc(C3=NOC(c4cc(Cl)c(Cl)c(Cl)c4)(C(F)(F)F)C3)cc2C)C1=O (stereo not drawn) [Compound A02]
≥ 80%: all assays above

Cc1cc(C2=NOC(c3cc(Cl)c(Cl)c(Cl)c3)(C(F)(F)F)C2)ccc1C(=O)NC1CON(CC(F)(F)F)C1=O (stereo not drawn) [Compound A16]
≥ 80%: all assays above

Cc1cc(C2=NOC(c3cc(Cl)c(F)c(Cl)c3)(C(F)(F)F)C2)ccc1C(=O)NC1CON(CC(F)(F)F)C1=O (stereo not drawn) [Compound A20]
≥ 80%: all assays above

From US20140243375A1, “ISOXAZOLINE DERIVATIVES AS INSECTICIDAL COMPOUNDS” (Syngenta Participations AG, priority 2011, published 2014)
